Holding throughout (type): cell-based, human
The subject of experiment [1] is T cells from cat allergic patients. Put plainly: T cell proliferation of TRFP-primed T cells from cat allergic patients (tritiated thymidine), Example 5 Part A. The note with it: for secondary T cell response of patient 131: FIG. 8. How it is done: Peripheral blood mononuclear cells (PBMC) were purified from 60 ml of heparinized blood from cat allergic patients. PBMC were subsequently treated as described below, although in individual cases, the length of time of cultivation with IL-2 and/or IL-4 and the specific peptides used for stimulation varied.
10 ml of PBMC from patient 131 at 10^6 /ml were cultured at 37° C. for 7 days in the presence of 5 μg purified TRFP/ml RPMI-1640 supplemented with 5% pooled human AB serum. Viable cells were purified by Ficoll-Hypaque centrifugation and cultured for three weeks at 5 units recombinant human IL-2/ml and 5 units recombinant human IL-4/ml. The resting T cells were then restimulated (secondary) with 5 μg TRFP at 2×10^5/ml in the presence of irradiated (3500 Rads) autologous PBMC at a concentration of 5×10^5/ml for three days, purified by Ficoll-Hypaque centrifugation and grown in 5 units IL-2 and 5 units IL-4/ml for two weeks. For assay, 2×10^4 resting secondary T cells were restimulated (tertiary) in the presence of 5×10^4 irradiated (3500 Rads) autologous PBMC or 2×10^4 transformed B cells (20,000 Rads) with various concentrations of allergens or their fragments in a volume of 200 microliters in a 96-well round bottom assay plates for 3 days. Each well then received 1 μCurie tritiated (methyl) thymidine for 16 hours. The counts incorporated were collected onto glass fiber filters and processed for liquid scintillation counting.
Antigens used: T cell reactive feline protein (TRFP), Hollister-Stier cat epithelium skin test reagent (CST), IPC ragweed pollen extract (pollen), and synthetic peptides derived from TRFP protein sequence (See FIGS. 6 and 7). Positive T cell proliferation is for these experiments was considered to be greater than 2.5 times the media control (T cells and antigen presenting cells alone).
Alternatively, PBMC were treated as follows: The primary stimulated cells were cultured in IL-2/IL-4 for two weeks. The resting T cells derived from this culture were tested in a secondary assay with some, but not all, of the above allergens. […] This type of epitope analysis has allowed the definition of T cell epitopes present in TRFP.

The subject of experiment [2] is PBMC from cat-allergic patients. Put plainly: IL-2, IFN-gamma and IL-4 measurements by PCR in primary 36 hour PBMC culture. The settings on record: Patient 409 primary 36 hour culture. How it is done:
Peripheral blood mononuclear cells (PBMC) were purified from cat-allergic patients as described in Example 5. Five×10^6 PBMC were cultured at 2×10^6/ml for 36 hours in the presence of medium only, 20 μg purified TRFP/ml or 50 μg peptide/ml. The cells were then washed two times with phosphate buffered saline (PBS, pH 7.2) and lysed with 2 ml […] guanidinium isothiocyanate, 0.5% Sarkosyl, 5 mM sodium citrate, 0.1 M 2-mercaptoethanol, pH 7.0. The lysate was then forced through a 26 gauge needle to shear genomic DNA, and was layered onto a 2 ml cushion of 5.7 M CsCl, 0.01 M EDTA, pH 7.5 in diethylpyrocarbonate (DEPC)-treated water. The lysate was centrifuged at 35,000 RPM in a Beckman SW41 rotor for 18 hours at 20° C. The RNA pellet was resuspended in 0.4 ml TE (10 mM Tris, 1 mM EDTA), pH 7.5, 0.1% SDS, and then extracted three times with 0.5 ml phenol/0.2 ml chloroform. The RNA was then precipitated on dry ice with 2.5 volumes ice-cold ethanol, 1/10 volume 3 M sodium acetate, pH 5.2 in DEPC-treated water, rinsed once with 70% ethanol in DEPC-treated water, and dried. The RNA pellet was resuspended in 2 μl TE., pH 7.5 in DEPC-treated water.
Total cellular RNA was converted to cDNA using the Superscript kit (BRL, Bethesda, Md.). Two μl of RNA were added to one μl oligo (dT)12-18 (500 μg/ml) and 9 μl water. The sample was heated to 70° C. for 10 minutes and ice quenched. Four μl 5× buffer were added to the sample along with 2 μl 0.1 M DTT and 1 μl dNTP mix (10 mM each, dATP, dCTP, dGTP, dTTP). One μl reverse transcriptase (200U) was added and the reaction was carried out for one hour at 42° C. The reaction was terminated by incubation of the sample at 90° C. for five minutes and stored at −80° C.
Ten-fold serial dilutions of T cell cDNA in 10 mM TRIS, pH 7.5 were amplified using the standard kit and protocol recommended by Perkin Elmer-Cetus (Redwood City, Calif.). Each sample received 26.65 μl water, 5 μl ×PCR buffer, 8 μl of dNTP mix (1.25 mM each of dATP, dCTP, dGTP and dTTP), 0.1 μl alpha 32P-dCTP (3000 Ci/mmol), 0.25 μl AmpliTaq, 5 μl cDNA and 5 μl cytokine-specific 5′ and 3′ primers (20 micromolar). The primers used for most cytokines and the beta-actin control were purchased from Clontech (Redwood City, Calif.). The human IL-4 primers were purchased from Research Genetics (Huntsville, Ala.) and had the following sequences: 5′ hIL-4 primer (SEQ. ID. NO: 58):
The PCR products were extracted once with 25 μl chloroform and 25 μl of each sample were then electrophoresed on an 8% polyacrylamide gel at 250 V. The gel was dried and exposed to pre-flashed x-ray film. Several exposures of each gel were then scanned using a Shimadzu flying spot laser densitometer. Values on the linear portion of the titrations were then compared to the medium control values to obtain a stimulation index for each sample. Primers for beta-actin were included as a control for general cDNA levels in each sample. Where the medium control values are not detectable, the lowest measurable response was set at 1.00. In other experiments, levels of cytokine cDNA can be compared directly with previously amplified cytokine specific cDNAs as standards. Thus, absolute levels of particular cytokine cDNAs can be compared from one sample to another and from one experiment to another. In this experiment, IL-2, IL-4 and IFN-gamma levels were measured. As shown, in this particular cat-allergic patient, peptides such as Fel 18 generate more IL-4 than certain other TRFP-derived peptides (Fel 14 and Fel 17). This analysis will be expanded to studies of other cytokines involved in the generation of allergic responses, such as IL-5, IL-8, IL-9, TGF-beta. Samples of cDNA from each treatment can also be saved for later analysis once additional cytokines are identified and sequenced. Peptides generating a spectrum of cytokines favorable for the generation of allergic responses can be avoided for therapeutic use in the treatment of cat allergy. […]

For experiment [3], the system named is T cells from cat-allergic patients. Put plainly: Secondary proliferation assay of T cells primed with TRFP, peptide YXZ or peptide YZX. How it is done:
The human cat allergic T cell response to peptides produced as above was examined. […] Peptide YZX was cleaved with thrombin as described in Example 25. Viable cells were then purified by Ficoll-Hypaque centrifugation and cultured for 2 additional weeks in RPMI-1640/5% AB serum containing 5 units recombinant human IL-2/ml and 5 units recombinant human IL-4/ml. The resting T cells were then tested in a secondary proliferation assay using a 96 well microtiter plate to assess T cell responses to various TRFP proteins or peptides (TRFP antigens). For assay, 2×10^4 resting T cells were cultured for 3 days at 37° C. in the presence of 2×10^4 autologous Epstein-Barr virus transformed B cells (25,000 Rads) as antigen presenting cells with various concentrations of antigen in 200 μl per well. Each well then received 1 μCi tritiated thymidine for 16 hours. The counts incorporated were collected onto glass fiber filters and processed for liquid scintillation counting. The stimulation indices for responses to each antigen were then calculated as the maximum CPM in response to antigen divided by the medium control CPM. A stimulation index of 2.5 was considered to be a positive T cell response. A summary of the results of 3 such experiments (patients 522, 519, and 386 is shown in FIG. 35a, FIG. 35b and FIG. 35c). As compared to the experiments shown in FIGS. 35a and 35b in the experiment shown in […], Fel-1.4 (chain 1, amino acid residues 6-17) was substituted for Fel-1.2 (chain 1, amino acid residues 1-17) and Fel-33.3 (chain 2, amino acid residues 26-40) was substituted for Fel-18 (chain 2, amino acid residues 23-48) in order to more closely resemble the constituent amino acids of peptides X and Z. In addition, in this experiment one peptide derived from the Y-Z junction of peptide YZX (amino acid residues 50-55 from chain 1 of TRFP and amino acid residues 14-19 from chain 2 of TRFP) and one peptide derived from the Z-X junction of peptide YZX (amino acid residues 34-39 of chain 2 of TRFP and amino acid residues 7-12 of chain 1 of TRFP) were synthesized and tested. These junction peptides were produced in order to determine whether these areas of peptide YZX produce a non-native epitope when formed in the peptide.

[4] abbreviates: Table 2, chain #1 TRFP peptides, average SI of responding patients multiplied by percent of patients with positive response (SI >2.5).
Where [5] appears, read: Table 2, chain #1 TRFP peptides, average cpm with antigen divided by cpm of T cells and APC alone, responding patients.
Setting [6] is: Table 3, chain #2 TRFP peptides.
The mark [7] stands for this setting: patient 522, T cells primed with YXZ.
[8] abbreviates: patient 386, T cells primed with YZX.
[9] abbreviates: patient 522, T cells primed with native TRFP, SI 2.5 positive.

Consider “Fel 4-2: TRFP chain 1 amino acids 37-49 (NARILKNCVDAKM; UniProt P30438 59-71, looked up, fragment)”, for which the PI in experiment [1] (setting [4]) was determined as 378. In experiment [1] (setting [5]), the SI turned out to be 6.2.

Turning to “LLLDLSLTKVNATEPERTAMKKIQDC [Fel 18, TRFP chain 2 amino acids 23-48]”, in experiment [2], the “RATIO IFN/IL-4” value was found to be 0.5 and the “RATIO IL-2/IL-4” value was determined as 0.4. In experiment [2] (PCR, vs medium control), the “STIMULATION INDEX IFN-γ” value is listed as 5.6, the “STIMULATION INDEX IL-2” value was 4.6 and the “STIMULATION INDEX IL-4” value is listed as 12.0. In experiment [1] (setting [6]), this substance had a PI of 466 and an SI of 6.3. Besides, the T cell response result in experiment [3] (setting [7]) is reported as “respond at a similar level or better”.

In experiment [1] (setting [6]), “Fel 33-3: TRFP chain 2 amino acids 26-40 (CPIFYDVFFAVANGN)” had a PI of 235 and an SI of 5.0.

Turning to “Fel 14-2: TRFP chain 1 amino acids 29-42 (KALPVVLENARILK; UniProt P30438 51-64, looked up, fragment)”, the SI in experiment [1] (setting [5]) is given as 4.6. For the same substance, the T cell response result in experiment [3] (setting [8]) is “respond at a similar level or better”; in experiment [3] (patient 386, T cells primed with native TRFP) it was “positively respond”; in experiment [3] (setting [7]), “respond at a similar level or better”; in experiment [3] (setting [9]), “positively respond”.

Take “Fel 4-1: TRFP chain 1 amino acids 37-52 (NARILKNCVDAKMTEE; UniProt P30438 59-74, looked up, fragment)”: the PI in experiment [1] (setting [4]) amounted to 822. In addition, the SI in experiment [1] (setting [5]) is listed as 9.9.

As to “Fel 14-3: TRFP chain 1 amino acids 25-36 (VAQYKALPVVLE; UniProt P30438 47-58, looked up, fragment)”, the PI in experiment [1] (setting [4]) was found to be 621. In addition, the SI in experiment [1] (setting [5]) is 6.9.

In the case of “Fel 8: TRFP chain 1 amino acids 1-30 (EICPAVKRDVDLFLTGTPDEYVEQVAQYKA; UniProt P30438 23-52, looked up, fragment)”, the “secondary T cell response of patient 131” value in experiment [1] is given as “respond”.

With “Fel 1-4: TRFP chain 1 amino acids 6-17 (VKRDVDLFLTGT; UniProt P30438 28-39, looked up, fragment)”, the PI in experiment [1] (setting [4]) is recorded as 816. The SI in experiment [1] (setting [5]) turned out to be 9.6.

“Fel 1-5: TRFP chain 1 amino acids 8-17 (RDVDLFLTGT; UniProt P30438 30-39, looked up, fragment)” yielded a PI in experiment [1] (setting [4]) of 286. Also, the SI in experiment [1] (setting [5]) is 5.2.

In experiment [1] (setting [6]), “Fel 33-1: TRFP chain 2 amino acids 26-36 (CPIFYDVFFAV)” had a PI of 340 and an SI of 5.4.

In experiment [1] (setting [6]), “Fel 32-3: TRFP chain 2 amino acids 16-24 (QALGVKMAE)” came in with a PI of 270 and an SI of 3.7.

In experiment [1] (setting [6]), “Fel 16: TRFP chain 2 amino acids 1-22 (DTMRGALLVLALLVTQALGVKM)” registered a PI of 283 and an SI of 5.9.

In experiment [1] (setting [6]), “Fel 33-2: TRFP chain 2 amino acids 26-38 (CPIFYDVFFAVAN)” showed a PI of 210 and an SI of 4.2.

On to “Fel 17: TRFP chain 2 amino acids 12-33 (LLVTQALGVKMAETCPIFYDVF)”, for which the T cell response entry in experiment [3] (setting [8]) is reported as “respond at a similar level or better”; in experiment [3] (patient 519, cells primed with peptide YXZ), “positive responses”; in experiment [3] (setting [7]) it was “respond at a similar level or better”; in experiment [3] (setting [9]), “positively respond”.

As for “EITPAVKRDVDLFLTGT [Fel 1, TRFP chain 1 amino acids 1-17, amino acid 3 changed to T]”, the “secondary T cell response of patient 131” value in experiment [1] is reported as “respond”. The PI in experiment [1] (setting [4]) turned out to be 392. In experiment [1] (setting [5]), this substance registered an SI of 5.6.

“DVDLFLTGTPDEYVEQV [Fel 2, TRFP chain 1 amino acids 9-25]” registered a PI in experiment [1] (setting [4]) of 416. Also, the SI in experiment [1] (setting [5]) came out at 7.3. Further, the T cell response entry in experiment [3] (setting [8]) and in experiment [3] (setting [7]) was “respond at a similar level or better” each time.

Values taken from patent US7482008B1, “Human T cell reactive feline protein (TRFP) isolated from house dust and uses therefor” (Merck Patent GmbH, priority 1989, dated 2009).
